Source: patent US20130012546A1 (priority 2009, published 2013)

Columns and labels:
Phytophthora infestans = format: in vivo; conditions: tomato plants, preventive spray, 100 ppm of active ingredient, evaluated 7 days after inoculation
logP(HCOOH) by HPLC = format: physicochemical; conditions: HPLC on reversed phase columns
[1] = pH 2.7, 0.1% formic acid in water / acetonitrile, linear gradient 10% to 95% acetonitrile, EEC directive 79/831 Annex V.A8
[2] = pH 2.7, 0.1% formic acid in water / acetonitrile gradient

Row | SMILES | Efficacy % (Phytophthora infestans) | log p (logP(HCOOH) by HPLC; [1]) | log p (logP(HCOOH) by HPLC; [2])
1 | CON=C(C(=O)Nc1cccc(CON=C(c2ccccc2)c2nnnn2C)n1)c1ccc(Cl)cc1Cl [Example 1] | 95% | 4.7 | –
2 | CON=C(C(=O)Nc1cccc(CON=C(c2ccccc2)c2nnnn2C)n1)c1ccccc1Cl [Example 2] | 98% | 4.13 | –
3 | CON=C(C(=O)Nc1cccc(CON=C(c2ccccc2)c2nnnn2C)n1)c1ccc(Cl)cc1 [Example 3] | 75% | 4.51 | –
4 | C#CCOCC(=O)Nc1cccc(CON=C(c2ccccc2)c2nnnn2C)n1 [Example 4] | 85% | 2.8 | –
5 | C=CCCCOCC(=O)Nc1cccc(CON=C(c2ccccc2)c2nnnn2C)n1 [Example 5] | 95% | 3.78 | –
6 | CON=C(C(=O)Nc1nc(CON=C(c2ccccc2)c2nnnn2C)cs1)c1ccc(Cl)cc1 [Example 7] | 95% | 4.27 | –
7 | CON=C(C(=O)Nc1nc(CON=C(c2ccccc2)c2nnnn2C)cs1)c1ccc(Br)cc1 [Example 8] | 93% | 4.37 | –
8 | CON=C(C(=O)Nc1nc(CON=C(c2ccccc2)c2nnnn2C)cs1)c1ccc(Cl)cc1Cl [Example 9] | 95% | 4.41 | –
9 | CON=C(C(=O)Nc1nc(CON=C(c2ccccc2)c2nnnn2C)cs1)c1cccc(Cl)c1Cl [Example 11] | 95% | 4.27 | –
10 | C#CCOCC(=O)Nc1nc(CON=C(c2ccccc2)c2nnnn2C)cs1 [Example 13] | 85% | 2.64 | –
11 | Cc1nnnn1C(=NOCc1cccc(NC(=O)OCCC2CCCCC2)n1)c1ccccc1 [Example 15] | 95% | 5.19 | –
12 | Cc1nnnn1C(=NOCc1cccc(NC(=O)OCC2CC2)n1)c1ccccc1 [Example 17] | 93% | 3.52 | –
13 | Cc1nnnn1C(=NOCc1cccc(NC(=O)OCCCC2CCCCC2)n1)c1ccccc1 [Example 19] | 95% | 5.62 | –
14 | Cc1nnnn1C(=NOCc1cccc(NC(=O)OCCCC2CCCC2)n1)c1ccccc1 [Example 21] | 95% | 5.25 | –
15 | C#CCOCC(=O)Nc1cccc(CON=C(c2ccccc2)n2nnnc2C)n1 [Example 22] | 70% | 2.86 | –
16 | CON=C(C(=O)Nc1nc(CON=C(c2ccccc2)n2nnnc2C)cs1)c1ccc(Cl)cc1Cl [Example 23] | 90% | 4.49 | –
17 | Cc1nnnn1C(=NOCc1csc(NC(=O)OCCC2CCCCC2)n1)c1ccccc1 [Example 24] | 88% | 4.8 | –
18 | Cc1nnnn1C(=NOCc1csc(NC(=O)OCC2CCCCC2)n1)c1ccccc1 [Example 25] | 93% | 4.41 | –
19 | Cc1nnnn1C(=NOCc1csc(NC(=O)OCC2CC2)n1)c1ccccc1 [Example 26] | 70% | 3.27 | –
20 | CON=C(C(=O)Nc1nc(CON=C(c2ccccc2)n2nnnc2C)cs1)c1ccccc1Cl [Example 27] | 85% | 3.92 | –
21 | CON=C(C(=O)Nc1nc(CON=C(c2ccccc2)n2nnnc2C)cs1)c1ccc(Cl)cc1 [Example 28] | 80% | 4.32 | –
22 | CC(C)=NOC(C)C(=O)Nc1cccc(CO/N=C(/c2ccccc2)c2nnnn2C)n1 (centres unmarked) [Example 32] | 70% | 3.25 | –
23 | CC(=NOCC(=O)Nc1cccc(CON=C(c2ccccc2)c2nnnn2C)n1)c1ccccc1 [Example 33] | 80% | 3.92 | –

Row | SMILES | Efficacy % (Phytophthora infestans) | log p (logP(HCOOH) by HPLC; [1]) | log p (logP(HCOOH) by HPLC; [2])
24 | CC(=NOCC(=O)Nc1nc(CON=C(c2ccccc2)c2nnnn2C)cs1)C(C)(C)C [Example 34] | 90% | 3.99 | –
25 | CC(C)=NOC(C)C(=O)Nc1nc(CO/N=C(/c2ccccc2)c2nnnn2C)cs1 (centres unmarked) [Example 35] | 95% | 3.11 | –
26 | CC(=NOCC(=O)Nc1nc(CON=C(c2ccccc2)c2nnnn2C)cs1)c1ccccc1 [Example 36] | 95% | 3.76 | –
27 | CC(=NOCC(=O)Nc1nc(CON=C(c2ccccc2)n2nnnc2C)cs1)C(C)(C)C [Example 37] | 88% | 4.04 | –
28 | CC(C)=NOC(C)C(=O)Nc1nc(CO/N=C(/c2ccccc2)n2nnnc2C)cs1 (centres unmarked) [Example 38] | 88% | 3.17 | –
29 | C=CCCOCC(=O)Nc1cccc(CO/N=C(/c2ccccc2)c2nnnn2C)n1 [Example 40] | 85% | 3.39 | –
30 | C=CCCOC(C)C(=O)Nc1cccc(CO/N=C(/c2ccccc2)c2nnnn2C)n1 (centres unmarked) [Example 41] | 100% | 3.69 | –
31 | C=CCCOC(C)C(=O)Nc1nc(CO/N=C(/c2ccccc2)n2nnnc2C)cs1 (centres unmarked) [Example 43] | 95% | 3.53 | –
32 | C=CCCOCC(=O)Nc1nc(CO/N=C(/c2ccccc2)n2nnnc2C)cs1 [Example 44] | 93% | 3.23 | –
33 | C#CCOC(C)C(=O)Nc1cccc(CO/N=C(/c2ccccc2)c2nnnn2C)n1 (centres unmarked) [Example 50] | 95% | 3.04 | –
34 | C#CCOC(C)C(=O)Nc1cccc(CO/N=C(/c2ccccc2)n2nnnc2C)n1 (centres unmarked) [Example 52] | 93% | 3.11 | –
35 | Cc1nnnn1/C(=N\OCc1csc(NC(=O)OC(C)CC2CC2)n1)c1ccccc1 (centres unmarked) [Example 56] | 95% | 3.87 | –
36 | Cn1nnnc1C(=NOCc1csc(NC(=O)OCC2CCCCC2)n1)c1ccccc1 [Example 61] | 98% | 4.37 | –
37 | Cn1nnnc1C(=NOCc1cccc(NC(=O)COC2CCCCC2)n1)c1ccccc1 [Example 77] | 93% | 4.15 | –
38 | Cc1nnnn1C(=NOCc1cccc(NC(=O)COC2CCCCC2)n1)c1ccccc1 [Example 79] | 90% | 4.25 | –
39 | Cn1nnnc1C(=NOCc1csc(NC(=O)COC2CCC2)n1)c1ccccc1 [Example 80] | 90% | 3.19 | –
40 | Cn1nnnc1C(=NOCc1cccc(NC(=O)COC2CCC2)n1)c1ccccc1 [Example 81] | 80% | 3.46 | –
41 | Cc1nnnn1C(=NOCc1csc(NC(=O)COC2CCC2)n1)c1ccccc1 [Example 82] | 90% | 3.25 | –
42 | Cc1nnnn1C(=NOCc1cccc(NC(=O)COC2CCC2)n1)c1ccccc1 [Example 83] | 90% | 3.55 | –
43 | Cn1nnnc1C(=NOCc1csc(NC(=O)OC2CC3CCC2(C)C3(C)C)n1)c1ccccc1 (centres unmarked) [Example 104] | 93% | – | –
44 | Cn1nnnc1C(=NOCc1csc(NC(=O)OC2CC3CCC2(C)C3(C)C)n1)c1cccc(F)c1 (centres unmarked) [Example 105] | 80% | – | –
45 | CC1CCC(OC(C)C(=O)Nc2cccc(CON=C(c3ccccc3)c3nnnn3C)n2)CC1 (centres unmarked) [compound 198] | – | – | 4.81
46 | Cn1nnnc1C(=NOCc1csc(NC(=O)CON=C2CCCCC2)n1)c1ccccc1 [compound 200] | – | – | 3.46

Row | SMILES | Efficacy % (Phytophthora infestans) | log p (logP(HCOOH) by HPLC; [1]) | log p (logP(HCOOH) by HPLC; [2])
47 | CC(=NOCC(=O)Nc1cccc(CON=C(c2ccccc2)n2nnnc2C)n1)c1ccccc1 [compound 202] | – | – | 3.94
48 | CC(C)=NOC(C)C(=O)Nc1cccc(CON=C(c2ccccc2)n2nnnc2C)n1 (centres unmarked) [compound 203] | – | – | 3.35
49 | CC(=NOCC(=O)Nc1cccc(CON=C(c2ccccc2)n2nnnc2C)n1)C(C)(C)C [compound 204] | – | – | 4.34
50 | CC1=C(CC(C)OC(=O)Nc2nc(CON=C(c3ccccc3)n3nnnc3C)cs2)C1(C)C (centres unmarked) [compound 207] | – | – | 4.86
51 | CC1=C(CC(C)OC(=O)Nc2nc(CON=C(c3ccccc3)n3nnnc3C)cs2)C1 (centres unmarked) [compound 208] | – | – | 4.11
52 | CC1=C(CC(C)OC(=O)Nc2nc(CON=C(c3ccccc3)c3nnnn3C)cs2)C1(C)C (centres unmarked) [compound 209] | – | – | 4.68
53 | CC1=C(CC(C)OC(=O)Nc2nc(CON=C(c3ccccc3)c3nnnn3C)cs2)C1 (centres unmarked) [compound 210] | – | – | 4.06
54 | Cn1nnnc1C(=NOCc1csc(NC(=O)OC2CCc3ccccc3C2)n1)c1ccccc1 (centres unmarked) [compound 211] | – | – | 4.14
55 | CC(C)=NOCCOC(=O)Nc1cccc(CON=C(c2ccccc2)c2nnnn2C)n1 [compound 213] | – | – | 3.11
56 | CC=NOCCOC(=O)Nc1cccc(CON=C(c2ccccc2)c2nnnn2C)n1 [compound 214] | – | – | 2.96
57 | CC1=C(CC(C)OCC(=O)Nc2nc(CON=C(c3ccccc3)n3nnnc3C)cs2)C1 (centres unmarked) [compound 215] | – | – | 4.11
58 | CC1=C(CC(C)OCC(=O)Nc2nc(CON=C(c3ccccc3)n3nnnc3C)cs2)C1(C)C (centres unmarked) [compound 216] | – | – | 4.91
59 | Cc1nnnn1C(=NOCc1csc(NC(=O)CC=COc2ccccc2)n1)c1ccccc1 [compound 217] | – | – | 3.61
60 | CC1=C(CC(C)OCC(=O)Nc2nc(CON=C(c3ccccc3)c3nnnn3C)cs2)C1(C)C (centres unmarked) [compound 218] | – | – | 4.83
61 | CC1=C(CC(C)OCC(=O)Nc2nc(CON=C(c3ccccc3)c3nnnn3C)cs2)C1 (centres unmarked) [compound 219] | – | – | 4.03
62 | Cn1nnnc1C(=NOCc1csc(NC(=O)CC=COc2ccccc2)n1)c1ccccc1 [compound 220] | – | – | 3.57
63 | CC1=C(CC(C)OCC(=O)Nc2cccc(CON=C(c3ccccc3)n3nnnc3C)n2)C1 (centres unmarked) [compound 221] | – | – | 4.37
64 | CC1=C(CC(C)OCC(=O)Nc2cccc(CON=C(c3ccccc3)n3nnnc3C)n2)C1(C)C (centres unmarked) [compound 222] | – | – | 5.42
65 | CC1=C(CC(C)OCC(=O)Nc2cccc(CON=C(c3ccccc3)c3nnnn3C)n2)C1 (centres unmarked) [compound 223] | – | – | 4.3
66 | CC1=C(CC(C)OCC(=O)Nc2cccc(CON=C(c3ccccc3)c3nnnn3C)n2)C1(C)C (centres unmarked) [compound 224] | – | – | 5.14
67 | Cn1nnnc1C(=NOCc1csc(NC(=O)CC[Si](C)(C)C)n1)c1ccccc1 [compound 227] | – | – | 4.01
68 | Cn1nnnc1C(=NOCc1csc(NC(=O)OCCCC#C[Si](C)(C)C)n1)c1ccccc1 [compound 228] | – | – | 4.71
